Source: patent US8283312B2, “Compositions and methods for modulating body weight and treating obesity-related disorders” (The Research Foundation of State University of New York, priority 2005, dated 2012)
Where two headings read alike, the source gives them in different places. Where no end group is shown, it is not given here. The star is where a group is joined. Octanoyl = CCCCCCCC(=O)*

Columns and labels:
RYGB rats = experiment: Food intake and body weight of RYGB rats given test substance via implanted intraperitoneal pump; type: in vivo, rat
Description: Daily Measurements: Postoperatively, daily body weight (BW) and caloric intake were measured each morning. The PF group was given the average food intake consumed the previous day by the RYGB group. Daily changes in BW, plotted every three day, are shown in FIG. 2 and the mean change per post-operative time periods are expressed in Table 1 using the same construct as earlier reported in our previous study (6).
A pump (Model 2002, Alza Corp. Palo Alto, Calif.) was implanted i.p. in each of 5 RYGB rats thirty days after RYGB. The pump was loaded with either the PYY receptor antagonist, B11E0246 (TOCRIS, Ellisville, Mo.), or a control solution (DMSO), and released its ingredient at the rate of about 8.3 μl/day (360 nm B11E0246/Kg/day). Food intake was measured as described above.
(§1) In a second experiment, a pump was implanted i.p. in each of 5 RYGB rats thirty days after RYGB. The pump was loaded with either ghrelin, or a control solution (DMSO), and released its ingredient at the rate of 8.3 μl/day (60 ng ghrelin/Kg/day). Food intake was measured as described above.
as §1, with “third” for “second”, “either a combination of the PYY receptor antagonist B11E0246 and” for “either”, “(DMSO). The pump” for “(DMSO), and”, “(360 nm B11E0246/Kg/day and 60” for “(60”

mice = conditions: cited from earlier work
obese subjects = conditions: 12 obese subjects, as compared to 12 lean subjects; cited from earlier work
[1] = physiological levels of ghrelin (60 ng/Kg/day) alone, i.p. pump, FIG. 7

**Q.** Which results are given for “ghrelin: peptide of 28 amino acids, in which the serine 3 residue is n-octanoylated; gut hormone that stimulates food intake (GSS(Octanoyl)FLSPEHQRVQQRKESKKPPAKLQPR; UniProt Q9UBU3 24-51, looked up)”?
**A.** body weight (RYGB rats; [1]): did not significantly increase food intake or body weight; food intake (RYGB rats; [1]): did not significantly increase food intake or body weight

**Q.** With `N=C(N)NCCC[C@H](NC(=O)CC1(CC(=O)N2CCN(C3c4ccccc4NC(=O)c4ccccc43)CC2)CCCC1)C(=O)NCCn1c(=O)n(-c2ccccc2)n(-c2ccccc2)c1=O` (stereo partly drawn) [B11E0246] as the molecule, how does the “daily and cumulative food intake” value (RYGB rats; i.p. pump implanted thirty days after RYGB, 360 nm B11E0246/Kg/day, vs control solution (DMSO), FIG. 6) read?
**A.** The value was “increased daily and cumulative food intake”.

**Q.** Which results are given for “PYY(3-36): functional analog of PYY; peptide consisting of amino acid 3 to 36 of PYY”?
**A.** food intake (mice; freely feeding mice): unchanged; food intake (mice; single intraperitoneal injection, 24 h fasted mice): significant reduction of food intake for 24 h but not for 48 h; decrease of ad libitum food intake per meal (obese subjects): 33%
